From patent US8686150B2 (Sanofi, priority 2011, dated 2014)

Biological target: T1, human full-length recombinant PKC βII (Homo sapiens, UniProt P05771)
T1 construct: Active human full-length recombinant PKC βII; purchased Invitrogen GmbH, Darmstadt, Germany
Test: Determination of PKC βII inhibition (Caliper mobility-shift kinase assay, Fluorescein-RFARKGSLRQKNV peptide substrate)
Assay type: biochemical
Details: example compounds at a final concentration of 1.14 μM (±0.15 μM)
Procedure, shortened: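 Compounds were tested at 1.14 μM final. Enzyme was activated by PS, DAG and CaCl2 in Hepes pH 7.4 with MgCl2, with substrate 3 μM and ATP 120 μM as pre-mix concentrations. After 60 min at 32 °C and an EDTA stop, Caliper separation gave fractional turnover, which was normalised to no-compound and no-enzyme controls.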

T1 sequence (P05771 1-673 isoform P05771-2): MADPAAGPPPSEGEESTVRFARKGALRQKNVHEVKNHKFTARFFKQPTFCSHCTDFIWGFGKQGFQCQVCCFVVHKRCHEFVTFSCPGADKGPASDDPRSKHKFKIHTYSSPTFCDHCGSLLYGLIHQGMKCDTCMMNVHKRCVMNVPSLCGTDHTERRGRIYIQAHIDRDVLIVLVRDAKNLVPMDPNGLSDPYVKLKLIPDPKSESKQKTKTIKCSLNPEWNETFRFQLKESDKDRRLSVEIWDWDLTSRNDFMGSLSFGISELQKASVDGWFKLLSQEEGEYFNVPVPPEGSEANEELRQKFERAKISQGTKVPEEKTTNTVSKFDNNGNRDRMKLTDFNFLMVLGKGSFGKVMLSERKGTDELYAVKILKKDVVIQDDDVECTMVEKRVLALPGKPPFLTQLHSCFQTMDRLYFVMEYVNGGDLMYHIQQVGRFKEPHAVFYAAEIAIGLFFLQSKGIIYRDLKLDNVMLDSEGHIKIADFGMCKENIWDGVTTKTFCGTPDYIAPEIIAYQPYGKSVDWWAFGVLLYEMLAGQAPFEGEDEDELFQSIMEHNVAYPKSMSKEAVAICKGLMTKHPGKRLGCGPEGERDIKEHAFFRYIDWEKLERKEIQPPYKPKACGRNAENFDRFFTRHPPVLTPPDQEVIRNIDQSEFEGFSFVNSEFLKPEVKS

Row | Compound | inhibition at 1.14 µM [%]
1 | Cc1n[nH]c2nc(-c3ccc(O)cc3)cc(C(=O)N3CCCC(C)(N)C3)c12 (centres unmarked) [Example 117, (3-Amino-3-methyl-piperidin-1-yl)-[6-(4-hydroxy-phenyl)-3-methyl-1H-pyrazolo[3,4-b]pyridin-4-yl]-methanone] | 89
2 | CCCC1(NC(=O)c2cc(-c3ccc(O)cc3)nc3[nH]nc(C)c23)CCNCC1 [Example 118, 6-(4-Hydroxy-phenyl)-3-methyl-1H-pyrazolo[3,4-b]pyridine-4-carboxylic acid (4-propyl-piperidin-4-yl)-amide] | 98
3 | Cc1n[nH]c2nc(-c3ccc(O)cc3)cc(C(=O)N[C@@H]3CCC[C@H]3N)c12 [Example 120, 6-(4-Hydroxy-phenyl)-3-methyl-1H-pyrazolo[3,4-b]pyridine-4-carboxylic acid ((1R,2R)-2-amino-cyclopentyl)-amide] | 88
4 | Cc1n[nH]c2nc(-c3ccc(O)cc3)cc(C(=O)N3CC(C)(C)NCC3(C)C)c12 [Example 121, [6-(4-Hydroxy-phenyl)-3-methyl-1H-pyrazolo[3,4-b]pyridin-4-yl]-(2,2,5,5-tetramethyl-piperazin-1-yl)-methanone] | 99
5 | Cc1n[nH]c2nc(-c3ccc(O)cc3)cc(C(=O)N3CCC(C)(N)C3)c12 (centres unmarked) [Example 122, (3-Amino-3-methyl-pyrrolidin-1-yl)-[6-(4-hydroxy-phenyl)-3-methyl-1H-pyrazolo[3,4-b]pyridin-4-yl]-methanone] | 89
6 | CCCC1(NC(=O)c2cc(-c3ccc(O)cc3)nc3[nH]nc(C)c23)CCCNC1 (centres unmarked) [Example 124, 6-(4-Hydroxy-phenyl)-3-methyl-1H-pyrazolo[3,4-b]pyridine-4-carboxylic acid (3-propyl-piperidin-3-yl)-amide] | 78
7 | CCCC1(NC(=O)c2cc(-c3ccc(O)cc3)nc3[nH]nc(C)c23)CCNC1 (centres unmarked) [Example 125, 6-(4-Hydroxy-phenyl)-3-methyl-1H-pyrazolo[3,4-b]pyridine-4-carboxylic acid (3-propyl-pyrrolidin-3-yl)-amide] | 52
8 | CCC(CCN)NC(=O)c1cc(-c2ccc(O)cc2)nc2[nH]nc(C)c12 (centres unmarked) [Example 127, 6-(4-Hydroxy-phenyl)-3-methyl-1H-pyrazolo[3,4-b]pyridine-4-carboxylic acid (3-amino-1-ethyl-propyl)-amide] | 90
9 | Cc1n[nH]c2nc(-c3ccc(O)cc3)cc(C(=O)NC(C)(C)CCN)c12 [Example 128, 6-(4-Hydroxy-phenyl)-3-methyl-1H-pyrazolo[3,4-b]pyridine-4-carboxylic acid (3-amino-1,1-dimethyl-propyl)-amide] | 91
10 | Cc1n[nH]c2nc(-c3ccc(O)cc3)cc(C(=O)NCCC(C)(C)N)c12 [Example 129, 6-(4-Hydroxy-phenyl)-3-methyl-1H-pyrazolo[3,4-b]pyridine-4-carboxylic acid (3-amino-3-methyl-butyl)-amide] | 69
11 | Cc1n[nH]c2nc(-c3ccc(O)cc3)cc(C(=O)NC[C@H]3CC[C@H](N)CC3)c12 [Example 130, 6-(4-Hydroxy-phenyl)-3-methyl-1H-pyrazolo[3,4-b]pyridine-4-carboxylic acid (trans-4-amino-cyclohexylmethyl)-amide] | 47
12 | Cc1n[nH]c2nc(-c3ccc(O)cc3)cc(C(=O)NC(CCN)c3ccccc3)c12 (centres unmarked) [Example 131, 6-(4-Hydroxy-phenyl)-3-methyl-1H-pyrazolo[3,4-b]pyridine-4-carboxylic acid (3-amino-1-phenyl-propyl)-amide] | 68
13 | Cc1n[nH]c2nc(-c3ccc(O)cc3)cc(C(=O)NC(CN(C)C)c3ccccc3)c12 (centres unmarked) [Example 132, 6-(4-Hydroxy-phenyl)-3-methyl-1H-pyrazolo[3,4-b]pyridine-4-carboxylic acid (2-dimethylamino-1-phenyl-ethyl)-amide] | 72
14 | Cc1n[nH]c2nc(-c3ccc(O)cc3)cc(C(=O)NCC(C)(C)N)c12 [Example 133, 6-(4-Hydroxy-phenyl)-3-methyl-1H-pyrazolo[3,4-b]pyridine-4-carboxylic acid (2-amino-2-methyl-propyl)-amide] | 89
15 | Cc1n[nH]c2nc(-c3ccc(O)cc3)cc(C(=O)NC(C)(C)C(C)(C)N)c12 [Example 134, 6-(4-Hydroxy-phenyl)-3-methyl-1H-pyrazolo[3,4-b]pyridine-4-carboxylic acid (2-amino-1,1,2-trimethyl-propyl)-amide] | 62
16 | Cc1n[nH]c2nc(-c3c(F)cc(O)cc3F)cc(C(=O)N3CCNCC3(C)C)c12 [Example 135, [6-(2,6-Difluoro-4-hydroxy-phenyl)-3-methyl-1H-pyrazolo[3,4-b]pyridin-4-yl]-(2,2-dimethyl-piperazin-1-yl)-methanone] | 96

Results, then the compound that gave them:

Row | inhibition at 1.14 µM [%] | Compound
17 | 100 | Cc1cc(O)ccc1-c1cc(C(=O)N2CCNCC2c2cc(F)cc(F)c2)c2c(C)n[nH]c2n1 (centres unmarked) [Example 136, [2-(3,5-Difluoro-phenyl)-piperazin-1-yl]-[6-(4-hydroxy-2-methyl-phenyl)-3-methyl-1H-pyrazolo[3,4-b]pyridin-4-yl]-methanone]
18 | 99 | Cc1cc(O)ccc1-c1cc(C(=O)N2CCNCC2c2ccc(Br)cc2)c2c(C)n[nH]c2n1 (centres unmarked) [Example 137, [2-(4-Bromo-phenyl)-piperazin-1-yl]-[6-(4-hydroxy-2-methyl-phenyl)-3-methyl-1H-pyrazolo[3,4-b]pyridin-4-yl]-methanone]
19 | 98 | Cc1cc(O)ccc1-c1cc(C(=O)N2CCNCC2c2ccc(F)cc2)c2c(C)n[nH]c2n1 (centres unmarked) [Example 138, [2-(4-Fluoro-phenyl)-piperazin-1-yl]-[6-(4-hydroxy-2-methyl-phenyl)-3-methyl-1H-pyrazolo[3,4-b]pyridin-4-yl]-methanone]
20 | 99 | Cc1cc(O)ccc1-c1cc(C(=O)N2CCNCC2c2cccc(F)c2F)c2c(C)n[nH]c2n1 (centres unmarked) [Example 139, [2-(2,3-Difluoro-phenyl)-piperazin-1-yl]-[6-(4-hydroxy-2-methyl-phenyl)-3-methyl-1H-pyrazolo[3,4-b]pyridin-4-yl]-methanone]
21 | 98 | COc1ccc(C2CNCCN2C(=O)c2cc(-c3ccc(O)cc3C)nc3[nH]nc(C)c23)cc1 (centres unmarked) [Example 140, [6-(4-Hydroxy-2-methyl-phenyl)-3-methyl-1H-pyrazolo[3,4-b]pyridin-4-yl]-[2-(4-methoxy-phenyl)-piperazin-1-yl]-methanone]
22 | 98 | Cc1cc(O)ccc1-c1cc(C(=O)N2CCNC[C@@H]2c2cccc(F)c2)c2c(C)n[nH]c2n1 [Example 141, [(S)-2-(3-Fluoro-phenyl)-piperazin-1-yl]-[6-(4-hydroxy-2-methyl-phenyl)-3-methyl-1H-pyrazolo[3,4-b]pyridin-4-yl]-methanone]
23 | 98 | Cc1cc(O)ccc1-c1cc(C(=O)N2CCNCC2(C)C)c2c(C)n[nH]c2n1 [Example 142, (2,2-Dimethyl-piperazin-1-yl)-[6-(4-hydroxy-2-methyl-phenyl)-3-methyl-1H-pyrazolo[3,4-b]pyridin-4-yl]-methanone]
24 | 84 | CO[C@H]1CNC[C@@H]1NC(=O)c1cc(-c2ccc(O)cc2C)nc2[nH]nc(C)c12 [Example 143, 6-(4-Hydroxy-2-methyl-phenyl)-3-methyl-1H-pyrazolo[3,4-b]pyridine-4-carboxylic acid ((3S,4S)-4-methoxy-pyrrolidin-3-yl)-amide]
25 | 82 | Cc1cc(O)ccc1-c1cc(C(=O)N2CCNCC2C(F)(F)F)c2c(C)n[nH]c2n1 (centres unmarked) [Example 144, [6-(4-Hydroxy-2-methyl-phenyl)-3-methyl-1H-pyrazolo[3,4-b]pyridin-4-yl]-(2-trifluoromethyl-piperazin-1-yl)-methanone]
26 | 92 | Cc1cc(O)ccc1-c1cc(C(=O)N2CCN[C@@H](C)C2)c2c(C)n[nH]c2n1 [Example 145, [6-(4-Hydroxy-2-methyl-phenyl)-3-methyl-1H-pyrazolo[3,4-b]pyridin-4-yl]-((S)-3-methyl-piperazin-1-yl)-methanone]
27 | 97 | COc1cccc(C2CNCCN2C(=O)c2cc(-c3ccc(O)cc3C)nc3[nH]nc(C)c23)c1 (centres unmarked) [Example 146, [6-(4-Hydroxy-2-methyl-phenyl)-3-methyl-1H-pyrazolo[3,4-b]pyridin-4-yl]-[2-(3-methoxy-phenyl)-piperazin-1-yl]-methanone]
28 | 96 | Cc1cc(O)ccc1-c1cc(C(=O)N2CCNCC2c2cccc(F)c2)c2c(C)n[nH]c2n1 (centres unmarked) [Example 147, [2-(3-Fluoro-phenyl)-piperazin-1-yl]-[6-(4-hydroxy-2-methyl-phenyl)-3-methyl-1H-pyrazolo[3,4-b]pyridin-4-yl]-methanone]
29 | 85 | Cc1cc(O)ccc1-c1cc(C(=O)NCC2(N)CCCCCC2)c2c(C)n[nH]c2n1 [Example 148, 6-(4-Hydroxy-2-methyl-phenyl)-3-methyl-1H-pyrazolo[3,4-b]pyridine-4-carboxylic acid (1-amino-cycloheptylmethyl)-amide]
30 | 86 | CCC1(NC(=O)c2cc(-c3ccc(O)cc3C)nc3[nH]nc(C)c23)CCCNC1 (centres unmarked) [Example 149, 6-(4-Hydroxy-2-methyl-phenyl)-3-methyl-1H-pyrazolo[3,4-b]pyridine-4-carboxylic acid (3-ethyl-piperidin-3-yl)-amide]
31 | 100 | Cc1cc(O)ccc1-c1cc(C(=O)N2CCNC[C@H]2c2ccccc2)c2c(C)n[nH]c2n1 [Example 150, [6-(4-Hydroxy-2-methyl-phenyl)-3-methyl-1H-pyrazolo[3,4-b]pyridin-4-yl]-((R)-2-phenyl-piperazin-1-yl)-methanone]
32 | 96 | Cc1cc(O)ccc1-c1cc(C(=O)N2CCNCC2c2ccccc2F)c2c(C)n[nH]c2n1 (centres unmarked) [Example 151, [2-(2-Fluoro-phenyl)-piperazin-1-yl]-[6-(4-hydroxy-2-methyl-phenyl)-3-methyl-1H-pyrazolo[3,4-b]pyridin-4-yl]-methanone]
